Measured values published in patent US20150344427A1 (EPIZYME, INC., priority 2012, published 2015).

Target: T1, wild-type EZH2 (PRC2 enzyme) (Homo sapiens, UniProt Q15910)
T1 construct: made in house; host or cells: Spodoptera frugiperda (sf9) cells, baculovirus
Test: PRC2 enzyme assay on peptide substrate, wild-type EZH2
Type: biochemical
Details: wild-type PRC2 enzyme 4 nM, H3K27me0 peptide, 3H-SAM Flashplate; read-out: WT EZH2 IC50
From the text: General Materials. S-adenosylmethionine (SAM), S-adenosylhomocyteine (SAH), bicine, KCl, Tween20, dimethylsulfoxide (DMSO) and bovine skin gelatin (BSG) were purchased from Sigma-Aldrich at the highest level of purity possible. Dithiothreitol (DTT) was purchased from EMD. ^3H-SAM was purchased from American Radiolabeled Chemicals with a specific activity of 80 Ci/mmol. 384-well streptavidin Flashplates were purchased from PerkinElmer.
Peptides representative of human histone H3 residues 21-44 containing either an unmodified lysine 27 (H3K27me0) or dimethylated lysine 27 (H3K27me2) were synthesized with a C-terminal G(K-biotin) linker-affinity tag motif and a C-terminal amide cap by 21st Century Biochemicals. […] The sequences are listed below.
Human PRC2 enzymes were purified as 4-component enzyme complexes co-expressed in Spodoptera frugiperda (sf9) cells using a baculovirus expression system. […] The EED subunit contained an N-terminal FLAG tag that was used to purify the entire 4-component complex from sf9 cell lysates.
The assays were all performed in a buffer consisting of 20 mM bicine (pH=7.6), 0.5 mM DTT, 0.005% BSG and 0.002% Tween20, prepared on the day of use. Compounds in 100% DMSO (1 μL) were spotted into polypropylene 384-well V-bottom plates (Greiner) using a Platemate 2×3 outfitted with a 384-channel pipet head (Thermo). DMSO (1 μL) was added to columns 11, 12, 23, 24, rows A-H for the maximum signal control, and SAH, a known product and inhibitor of PRC2 (1 μL) was added to columns 11,12, 23, 24, rows I-P for the minimum signal control. A cocktail (40 μL) containing the wild-type PRC2 enzyme and H3K27me0 peptide or any of the Y641 mutant enzymes and H3K27me2 peptide was added by Multidrop Combi (Thermo). The compounds were allowed to incubate with PRC2 for 30 min at 25° C., then a cocktail (10 μL) containing a mixture of non-radioactive and ^3H-SAM was added to initiate the reaction (final volume=51 μL). In all cases, the final concentrations were as follows: wild-type or mutant PRC2 enzyme was 4 nM, SAH in the minimum signal control wells was 1 mM and the DMSO concentration was 1%. The assays were stopped by the addition of non-radioactive SAM (10 μL) to a final concentration of 600 μM, which dilutes the ^3H-SAM to a level where its incorporation into the peptide substrate is no longer detectable. 50 μL of the reaction in the 384-well polypropylene plate was then transferred to a 384-well Flashplate and the biotinylated peptides were allowed to bind to the streptavidin surface for at least 1 h before being washed three times with 0.1% Tween20 in a Biotek ELx405 plate washer. The plates were then read in a PerkinElmer TopCount platereader to measure the quantity of ^3H-labeled peptide bound to the Flashplate surface, measured as disintegrations per minute (dpm) or alternatively, referred to as counts per minute (cpm).
Where dpm=disintegrations per minute, cmpd=signal in assay well, and min and max are the respective minimum and maximum signal controls.
Where top and bottom are the normally allowed to float, but may be fixed at 100 or 0 respectively in a 3-parameter fit. The Hill Coefficient normally allowed to float but may also be fixed at 1 in a 3-parameter fit. Y is the % inhibition and X is the compound concentration.

T1 sequence (Q15910 whole entry): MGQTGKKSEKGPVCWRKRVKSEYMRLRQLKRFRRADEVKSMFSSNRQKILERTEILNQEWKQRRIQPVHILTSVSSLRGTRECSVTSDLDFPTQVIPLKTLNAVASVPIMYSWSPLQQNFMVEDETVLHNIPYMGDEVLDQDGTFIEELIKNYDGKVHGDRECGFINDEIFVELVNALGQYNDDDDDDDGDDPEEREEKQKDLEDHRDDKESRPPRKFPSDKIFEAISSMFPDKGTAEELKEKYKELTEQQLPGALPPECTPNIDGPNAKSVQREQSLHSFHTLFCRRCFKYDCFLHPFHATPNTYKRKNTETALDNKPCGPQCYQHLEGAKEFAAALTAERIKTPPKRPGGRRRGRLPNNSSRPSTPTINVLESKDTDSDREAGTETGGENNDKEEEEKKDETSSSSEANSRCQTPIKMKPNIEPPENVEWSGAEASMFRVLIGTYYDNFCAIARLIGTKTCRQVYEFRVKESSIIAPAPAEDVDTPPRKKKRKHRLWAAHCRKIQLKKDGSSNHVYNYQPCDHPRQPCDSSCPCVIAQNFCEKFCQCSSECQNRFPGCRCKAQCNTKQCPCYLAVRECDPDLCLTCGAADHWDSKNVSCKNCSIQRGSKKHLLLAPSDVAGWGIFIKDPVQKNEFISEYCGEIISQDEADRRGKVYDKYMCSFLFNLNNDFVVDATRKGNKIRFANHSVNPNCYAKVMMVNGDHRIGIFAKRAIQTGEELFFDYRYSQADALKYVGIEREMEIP
T1 sequence (O75530 whole entry partner): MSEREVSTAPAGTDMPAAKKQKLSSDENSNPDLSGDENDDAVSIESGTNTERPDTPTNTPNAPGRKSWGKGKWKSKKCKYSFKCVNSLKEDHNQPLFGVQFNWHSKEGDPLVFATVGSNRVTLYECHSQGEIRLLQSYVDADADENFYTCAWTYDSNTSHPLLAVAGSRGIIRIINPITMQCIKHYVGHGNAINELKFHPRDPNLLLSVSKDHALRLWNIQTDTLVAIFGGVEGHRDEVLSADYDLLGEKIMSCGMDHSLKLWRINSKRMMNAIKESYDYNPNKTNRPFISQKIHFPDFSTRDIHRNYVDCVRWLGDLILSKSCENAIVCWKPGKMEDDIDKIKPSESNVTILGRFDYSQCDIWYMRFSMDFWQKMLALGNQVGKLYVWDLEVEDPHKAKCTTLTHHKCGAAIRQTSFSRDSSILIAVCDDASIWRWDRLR
T1 sequence (Q15022 whole entry partner): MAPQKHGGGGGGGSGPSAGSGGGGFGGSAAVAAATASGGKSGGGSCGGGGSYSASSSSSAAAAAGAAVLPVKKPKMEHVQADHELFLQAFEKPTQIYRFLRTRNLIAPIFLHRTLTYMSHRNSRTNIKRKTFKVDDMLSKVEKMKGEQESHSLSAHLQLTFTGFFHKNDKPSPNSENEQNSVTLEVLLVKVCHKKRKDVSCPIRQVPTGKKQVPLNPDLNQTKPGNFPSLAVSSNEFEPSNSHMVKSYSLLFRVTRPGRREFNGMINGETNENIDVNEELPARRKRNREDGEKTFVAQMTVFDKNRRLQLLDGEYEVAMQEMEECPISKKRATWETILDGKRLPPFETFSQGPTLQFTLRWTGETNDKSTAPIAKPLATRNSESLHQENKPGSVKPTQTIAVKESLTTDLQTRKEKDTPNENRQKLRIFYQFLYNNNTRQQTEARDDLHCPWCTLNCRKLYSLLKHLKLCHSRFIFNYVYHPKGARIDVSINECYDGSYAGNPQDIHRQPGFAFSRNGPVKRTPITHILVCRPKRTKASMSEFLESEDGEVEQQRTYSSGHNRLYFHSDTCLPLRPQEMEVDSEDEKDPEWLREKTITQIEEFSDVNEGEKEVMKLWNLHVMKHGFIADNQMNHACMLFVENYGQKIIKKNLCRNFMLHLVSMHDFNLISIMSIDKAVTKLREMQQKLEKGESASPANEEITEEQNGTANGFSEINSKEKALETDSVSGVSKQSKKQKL
T1 sequence (Q09028 whole entry partner): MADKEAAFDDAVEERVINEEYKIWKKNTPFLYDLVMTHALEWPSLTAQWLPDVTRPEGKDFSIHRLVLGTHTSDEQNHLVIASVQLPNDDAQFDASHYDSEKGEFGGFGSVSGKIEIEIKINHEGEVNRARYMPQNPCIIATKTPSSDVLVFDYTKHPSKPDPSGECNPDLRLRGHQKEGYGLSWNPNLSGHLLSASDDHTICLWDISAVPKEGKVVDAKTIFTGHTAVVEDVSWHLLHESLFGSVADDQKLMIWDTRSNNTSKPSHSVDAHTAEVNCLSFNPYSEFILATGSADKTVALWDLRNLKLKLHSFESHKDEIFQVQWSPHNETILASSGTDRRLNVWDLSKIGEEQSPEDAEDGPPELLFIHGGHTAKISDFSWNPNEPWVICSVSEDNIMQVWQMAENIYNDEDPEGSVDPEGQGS

IC50 [nM] | Compound
22 to 37 | CCN(c1cc(Cl)cc(C(=O)NCc2c(C)[nH]c(C)cc2=O)c1C)[C@H]1CC[C@H](N(C)C)CC1 [Compound 1, 5-chloro-N-((2,6-dimethyl-4-oxo-1,4-dihydropyridin-3-yl)methyl)-3-(((trans)-4-(dimethylamino)cyclohexyl)(ethyl)amino)-2-methylbenzamide]
40 | CCN(c1cc(-c2ccc(COC)nc2)cc(C(=O)NCc2c(Cl)[nH]c(C)cc2=O)c1C)[C@H]1CC[C@H](N(C)C)CC1 [Compound 88]
270 | CCN(c1cc(-c2cnn(C)c2)cc(C(=O)NCc2c(Cl)[nH]c(C)cc2=O)c1C)[C@H]1CC[C@H](N(C)C)CC1 [Compound 89]
50 | CCN(c1cc(-c2ccc(C)nc2)cc(C(=O)NCc2c(Cl)[nH]c(C)cc2=O)c1C)[C@H]1CC[C@H](N(C)C)CC1 [Compound 90]
140 | CCN(c1cc(-c2cnc(C)cn2)cc(C(=O)NCc2c(Cl)[nH]c(C)cc2=O)c1C)[C@H]1CC[C@H](N(C)C)CC1 [Compound 91]
38 | CCN(c1cc(-c2ccc(OCCOC)cc2)cc(C(=O)NCc2c(Cl)[nH]c(C)cc2=O)c1C)[C@H]1CC[C@H](N(C)C)CC1 [Compound 92]

The remaining lines, values behind:

Compound | IC50 [nM]
CCN(c1cc(Cl)cc(C(=O)NCc2c(C)n(C)c(C)cc2=O)c1C)[C@H]1CC[C@H](N(C)C)CC1 [Compound 86] | > 50000
CCn1c(C)cc(=O)c(CNC(=O)c2cc(Cl)cc(N(CC)[C@H]3CC[C@H](N(C)C)CC3)c2C)c1C [Compound 87] | 35400
CCN(c1cc(-c2ccc(OCCOC)cc2)cc(C(=O)NCc2c(C)[nH]c(C)cc2=O)c1C)[C@H]1CC[C@H](N(C)C)CC1 [Compound 93] | 5
CCCN(c1cc(-c2ccc(OCCOC)cc2)cc(C(=O)NCc2c(C)[nH]c(C)cc2=O)c1C)[C@H]1CC[C@H](N(C)C)CC1 [Compound 94] | 25
CCN(c1cc(-c2ccc(OCCOC)cc2)cc(C(=O)NCc2c(C)[nH]c(C)cc2=O)c1C)[C@H]1CC[C@H](N(C)CCOC)CC1 [Compound 100] | 27
